The results in this text go back to US5843889A, “Glycopeptide antibiotic derivatives” (Eli Lilly and Company, priority 1997, dated 1998).

Holding throughout (format): cell-based
In assay [1] the test system is Leuconostoc mesenteroides. The experiment in a line: MIC, agar dilution on brain-heart infusion agar. The following applies: Leuconostoc mesenteroides (mean of 4).
The subject of assay [2] is Pedicoccus acidilacti. Nature of the assay: MIC, agar dilution on brain-heart infusion agar. Particulars: Pedioccccus acidilacti (mean of 10). For orientation: In agar dilution, organisms are placed on agar that contains the substance at set levels.
Assay [3] concerns Entercoccus gallinarum 245. The experiment in a line: MIC, standard broth micro-dilution assay. Here is the method:
(§1) The formula I compounds have in vitro and in vivo activity against Gram-positive pathogenic bacteria. The MIC's were determined using a standard broth micro-dilution assay.
In general terms: Broth dilution looks for growth in wells or tubes with falling amounts of substance.

Assay [4] concerns Entercoccus faecalis 2041. Nature of the assay: MIC, standard broth micro-dilution assay. Here is the method: as §1
The subject of assay [5] is Entercoccus faecalis 276. Nature of the assay: MIC, standard broth micro-dilution assay. The protocol: as §1
Assay [6] deals with Staphylococcus aureus SA1199. Nature of the assay: MIC, standard broth micro-dilution assay. Here is the method:
The MIC's were determined using a standard broth micro-dilution assay.

Converted amounts (≈) assume the structure as drawn.

With `CNC(CC(C)C)C(=O)NC1C(=O)NC(CC(N)=O)C(=O)NC2C(=O)NC3C(=O)NC(C(=O)NC(C(=O)O)c4cc(O)cc(O)c4-c4cc3ccc4O)C(OC3CC(C)(N)C(O)C(C)O3)c3ccc(c(Cl)c3)Oc3cc2cc(c3OC2OC(CO)C(O)C(O)C2OC2CC(C)(NCc3ccc(OCc4ccccc4)c(OC)c3)C(O)C(C)O2)Oc2ccc(cc2Cl)C1O` (centres unmarked) [Compound 52, 4-benzyloxy-3-methoxybenzyl], the MIC in assay [1] came out at 76 µg/mL (≈ 41.8 µM); in assay [2], 55 µg/mL (≈ 30.2 µM); in assay [3] it was 1 µg/mL (≈ 0.55 µM); in assay [4], 0.5 µg/mL (≈ 0.275 µM).
For `CNC(CC(C)C)C(=O)NC1C(=O)NC(CC(N)=O)C(=O)NC2C(=O)NC3C(=O)NC(C(=O)NC(C(=O)O)c4cc(O)cc(O)c4-c4cc3ccc4O)C(OC3CC(C)(N)C(O)C(C)O3)c3ccc(c(Cl)c3)Oc3cc2cc(c3OC2OC(CO)C(O)C(O)C2OC2CC(C)(NCc3ccc4c(c3)OCCO4)C(O)C(C)O2)Oc2ccc(cc2Cl)C1O` (centres unmarked) [Compound 56], the MIC in assay [5] stood at 0.25 µg/mL (≈ 0.144 µM); in assay [3] it was 16 µg/mL (≈ 9.19 µM); in assay [4] it was 0.25 µg/mL (≈ 0.144 µM); in assay [6] it was 0.5 µg/mL (≈ 0.287 µM).
Regarding `CNC(CC(C)C)C(=O)NC1C(=O)NC(CC(N)=O)C(=O)NC2C(=O)NC3C(=O)NC(C(=O)NC(C(=O)O)c4cc(O)cc(O)c4-c4cc3ccc4O)C(OC3CC(C)(N)C(O)C(C)O3)c3ccc(c(Cl)c3)Oc3cc2cc(c3OC2OC(CO)C(O)C(O)C2OC2CC(C)(NCc3ccc(Oc4ccc([N+](=O)[O-])cc4)cc3)C(O)C(C)O2)Oc2ccc(cc2Cl)C1O` (centres unmarked) [Compound 57, 4-[4-nitrophenoxy]benzyl], the MIC in assay [5] was 0.5 µg/mL (≈ 0.275 µM); in assay [3] it was 2 µg/mL (≈ 1.1 µM); in assay [4], no more than 0.06 µg/mL; in assay [6] it was 1 µg/mL (≈ 0.55 µM).
With `CNC(CC(C)C)C(=O)NC1C(=O)NC(CC(N)=O)C(=O)NC2C(=O)NC3C(=O)NC(C(=O)NC(C(=O)O)c4cc(O)cc(O)c4-c4cc3ccc4O)C(OC3CC(C)(N)C(O)C(C)O3)c3ccc(c(Cl)c3)Oc3cc2cc(c3OC2OC(CO)C(O)C(O)C2OC2CC(C)(NCc3cccc4c3OCO4)C(O)C(C)O2)Oc2ccc(cc2Cl)C1O` (centres unmarked) [Compound 58, 2,3-methylenedioxybenzyl], the MIC turned out to be 55 µg/mL (≈ 31.9 µM) in assay [2]; 0.5 µg/mL (≈ 0.29 µM) in assay [5]; 0.5 µg/mL (≈ 0.29 µM) in assay [3]; 0.5 µg/mL (≈ 0.29 µM) in assay [4]; 1 µg/mL (≈ 0.579 µM) in assay [6].
Turning to `CNC(CC(C)C)C(=O)NC1C(=O)NC(CC(N)=O)C(=O)NC2C(=O)NC3C(=O)NC(C(=O)NC(C(=O)O)c4cc(O)cc(O)c4-c4cc3ccc4O)C(OC3CC(C)(N)C(O)C(C)O3)c3ccc(c(Cl)c3)Oc3cc2cc(c3OC2OC(CO)C(O)C(O)C2OC2CC(C)(NCCc3ccccc3OCc3ccccc3)C(O)C(C)O2)Oc2ccc(cc2Cl)C1O` (centres unmarked) [Compound 59, 2-benzyloxyphenethyl], the MIC in assay [3] was 1 µg/mL (≈ 0.555 µM); in assay [4], 0.5 µg/mL (≈ 0.277 µM); in assay [6], no more than 0.06 µg/mL.
Take `CCOc1ccc2ccccc2c1CNC1(C)CC(OC2C(Oc3c4cc5cc3Oc3ccc(cc3Cl)C(OC3CC(C)(N)C(O)C(C)O3)C3NC(=O)C(NC(=O)C5NC(=O)C(CC(N)=O)NC(=O)C(NC(=O)C(CC(C)C)NC)C(O)c5ccc(c(Cl)c5)O4)c4ccc(O)c(c4)-c4c(O)cc(O)cc4C(C(=O)O)NC3=O)OC(CO)C(O)C2O)OC(C)C1O` (centres unmarked) [Compound 60, 2-ethoxy-1-naphthylmethyl]: the MIC came to 0.5 µg/mL (≈ 0.281 µM) in assay [5], 16 µg/mL (≈ 9.01 µM) in assay [3] and 0.5 µg/mL (≈ 0.281 µM) in assay [6].
For the molecule `CNC(CC(C)C)C(=O)NC1C(=O)NC(CC(N)=O)C(=O)NC2C(=O)NC3C(=O)NC(C(=O)NC(C(=O)O)c4cc(O)cc(O)c4-c4cc3ccc4O)C(OC3CC(C)(N)C(O)C(C)O3)c3ccc(c(Cl)c3)Oc3cc2cc(c3OC2OC(CO)C(O)C(O)C2OC2CC(C)(NCCCCCCCCCCCCc3ccccc3)C(O)C(C)O2)Oc2ccc(cc2Cl)C1O` (centres unmarked) [Compound 234, 12-phenyldodecyl], the values for the MIC in assay [5], in assay [3] and in assay [4] were 4 µg/mL (≈ 2.18 µM), 16 µg/mL (≈ 8.71 µM) and 0.5 µg/mL (≈ 0.272 µM), respectively.
With `CNC(CC(C)C)C(=O)NC1C(=O)NC(CC(N)=O)C(=O)NC2C(=O)NC3C(=O)NC(C(=O)NC(C(=O)O)c4cc(O)cc(O)c4-c4cc3ccc4O)C(OC3CC(C)(N)C(O)C(C)O3)c3ccc(c(Cl)c3)Oc3cc2cc(c3OC2OC(CO)C(O)C(O)C2OC2CC(C)(NCCCCCCCCCC#Cc3ccccc3)C(O)C(C)O2)Oc2ccc(cc2Cl)C1O` (centres unmarked) [Compound 236, 11-phenyl-10-undecynyl], the results for the MIC in assay [5], in assay [3] and in assay [4] were 2 µg/mL (≈ 1.1 µM), 4 µg/mL (≈ 2.2 µM) and 1 µg/mL (≈ 0.55 µM), respectively.
In the case of `CNC(CC(C)C)C(=O)NC1C(=O)NC(CC(N)=O)C(=O)NC2C(=O)NC3C(=O)NC(C(=O)NC(C(=O)O)c4cc(O)cc(O)c4-c4cc3ccc4O)C(OC3CC(C)(N)C(O)C(C)O3)c3ccc(c(Cl)c3)Oc3cc2cc(c3OC2OC(CO)C(O)C(O)C2OC2CC(C)(NCc3sccc3-c3cccs3)C(O)C(C)O2)Oc2ccc(cc2Cl)C1O` (centres unmarked) [Compound 238, 3-[2-thienyl]-2-thienylmethyl], the MIC in assay [5], in assay [3] and in assay [4] was no more than 0.06 µg/mL in each case.
Take `CNC(CC(C)C)C(=O)NC1C(=O)NC(CC(N)=O)C(=O)NC2C(=O)NC3C(=O)NC(C(=O)NC(C(=O)O)c4cc(O)cc(O)c4-c4cc3ccc4O)C(OC3CC(C)(N)C(O)C(C)O3)c3ccc(c(Cl)c3)Oc3cc2cc(c3OC2OC(CO)C(O)C(O)C2OC2CC(C)(NCc3ccc(Oc4ccc(Cl)cc4)cc3)C(O)C(C)O2)Oc2ccc(cc2Cl)C1O` (centres unmarked) [Compound 240, 4-[4-chlorophenoxy]benzyl]: the MIC is 0.5 µg/mL (≈ 0.276 µM) in assay [5], 2 µg/mL (≈ 1.11 µM) in assay [3] and no more than 0.06 µg/mL in assay [4].
For `CNC(CC(C)C)C(=O)NC1C(=O)NC(CC(N)=O)C(=O)NC2C(=O)NC3C(=O)NC(C(=O)NC(C(=O)O)c4cc(O)cc(O)c4-c4cc3ccc4O)C(OC3CC(C)(N)C(O)C(C)O3)c3ccc(c(Cl)c3)Oc3cc2cc(c3OC2OC(CO)C(O)C(O)C2OC2CC(C)(NCC3CCC(Cc4ccccc4)CC3)C(O)C(C)O2)Oc2ccc(cc2Cl)C1O` (centres unmarked) [Compound 241, 4-[benzyl]cyclohexylmethyl] the same measures were no more than 0.06 µg/mL, no more than 0.06 µg/mL and no more than 0.06 µg/mL.
With `CN[C@@H](CC(C)C)C(=O)N[C@H]1C(=O)N[C@H](CC(N)=O)C(=O)N[C@H]2C(=O)N[C@H]3C(=O)N[C@@H](C(=O)NC(C(=O)O)c4cc(O)cc(O)c4-c4cc3ccc4O)[C@@H](O[C@H]3C[C@](C)(N)[C@H](O)[C@@H](C)O3)c3ccc(cc3)Oc3cc2cc(c3O[C@H]2O[C@@H](CO)[C@@H](O)[C@H](O)[C@@H]2O[C@H]2C[C@](C)(N)[C@H](O)[C@@H](C)O2)Oc2ccc(cc2)[C@@H]1O` (some centres unmarked) [Compound A82846C, A82846C, reference compound], the MIC in assay [5], in assay [3] and in assay [4] was 0.5 µg/mL (≈ 0.328 µM) each time.

As a reminder, the MIC is the lowest concentration found to suppress growth. Higher therefore signals a need for much substance.
